According to patent US20040234476A1, “Cosmetic preparation with anti-wrinkle action” (priority 2001, published 2004):
Where no end group is shown, it is not given here. The star is where a group is joined. Palmitoyl = CCCCCCCCCCCCCCCC(=O)*

Test system: cells
Assay: in vitro studies of collagen and glycosaminoglycan synthesis by cells
Assay type: cell-based

palmitoyl-Lys-Thr-Thr-Lys-Ser (Palmitoyl-KTTKS) [lipopeptide]
synthesis of collagen and glycosaminoglycans by cells: induces cells to synthesize collagen and glycosaminoglycans
